The values below come from patent US7273866B2, “2-aryl thiazole derivatives as KCNQ modulators” (Bristol-Myers Squibb Company, priority 2002, dated 2007).

This assay has as its system KCNQ channels. As to the kind of experiment: Thallium flux assay for KCNQ channel openers. In kind it is cell-based. Conditions: HEK-293 cells stably transfected with a KCNQ family member; for Min. conc. response: minimal active concentration: lowest concentration giving signal amplitude >= four standard deviations of negative controls; for EC50: thallium flux, 10 point concentration series. As to the method:
Thallium Flux Assay for KCNQ channel Openers. The thallium assay is a modification of that published by Weaver and is referenced in its entirety (Weaver, C. D. WO 02/31508, 2002).
Approximately 20,000 cells/well of an HEK-293 cell line stably transfected with one of the members of the KCNQ family were plated into clear-bottom, black-walled, poly-D-lysine coated, 384 well assay plates in 20 μl/well of low chloride plating medium. Low chloride plating medium was composed of the following: sodium gluconate, 109 mM; potassium gluconate, 5.4 mM; hemi-calcium gluconate, 3.6 mM; magnesium sulfate, 0.8 mM; sodium bicarbonate, 26.2 mM; sodium phosphate monobasic, 1.2 mM; glutamine, 2 mM; glucose, 5 mM; 4-(2-hydroxyethyl)-1-piperazineethanesulfonic acid (HEPES) (pH 7.3) 10 mM, MEM vitamin solution (10× concentration of vitamins, Gibco/LifeTechnologies 11120-052) and MEM amino acid solution (1× concentration of amino acids, Gibco/LifeTechnologies 11130-051).
Following overnight incubation in a 5% CO2 incubator at 37° C., the cells in the plates were loaded with 20 μl/well of a dye loading solution containing the commercially available thallium-sensitive fluorescent dye BTC-AM, the acetomethoxy ester of BTC (see U.S. Pat. No. 5,501,980) (2 μM) and pluronic acid F-127 (Molecular Probes P 6867) (0.02% w/v) in chloride free assay buffer. Chloride free assay buffer was composed of the following: sodium gluconate, 140 mM; potassium gluconate, 2.5 mM; hemi-calcium gluconate, 6 mM; hemi-magnesium gluconate, 2 mM; glucose, 5 mM; HEPES (pH 7.3), 10 mM.
Following incubation in the dye loading solution for from 45-90 min at room temperature, the dye loading solution was removed by aspiration and replaced with 40 μl/well of chloride free assay buffer.
Prior to addition to cell plates, test compound and standard compounds were dissolved in DMSO to 3 mM concentration. Compounds were then diluted from the 3 mM stock to 100-fold over the final assay concentration in DMSO. Finally, compounds in DMSO were diluted from 100-fold over the final assay concentration to 5-fold over the final assay concentration in chloride free assay buffer.
Ten μl/well of compounds at 5-fold over the final assay concentration were then added to the cell plates. This represents a 1:5 dilution, yielding the final test concentration. The wells used for test compounds were A1-P20. Wells A21-P22 contained a standard opener and a maximally efficacious concentration (positive control). Wells A23-P24 contained chloride free assay buffer containing 1% DMSO (negative control).
Following addition of test compounds, the plates were loaded onto the Molecular Devices FLIPR. The 488 nm line of the argon laser was used to excite the BTC and the emission filter was a 540(+/−30) nm. Images were collected at 1 Hz. Ten seconds of baseline were collected and then the FLIPR was used to add 13 μl/well of a stimulus buffer composed of 7.5 mM Tl2SO4 in chloride free assay buffer. Images were collected for an additional 60 seconds.
For data analysis, the amplitude of the average of the negative controls was subtracted from all wells. The amplitudes of the test compounds were then compared to the value of four standard deviations of the negative control wells. The lowest concentration of a test compound sufficient to generate a signal amplitude greater than or equal to four standard deviations from the amplitude of the negative controls was defined as the minimal active concentration.
For generating EC50 values, compounds were serially diluted in 1:3 volume increments to produce a 10 point concentration series. EC50 values were calculated by fitting the resulting amplitudes to a single-site logistic equation. EC50 was defined as the concentration of test compound required to yield 50% of the maximal response. Maximal response (Maximal opening) was the largest signal amplitude divided by the negative control amplitude generated by any concentration of a test compound. […]

Bounds are passed on as bounds.

As for `CC(NC(=O)c1sc(-c2ncccc2CN2CCOCC2)nc1C(F)(F)F)c1cccc(C(F)(F)F)c1` (stereo not shown) [Example 124], the Min. conc. response was 3 µM.
Take `CC(NC(=O)c1sc(-c2ccc3c(c2)OCO3)nc1C(F)(F)F)c1cccc(OC(F)(F)F)c1` (stereo not shown) [Example 20, 2-(3,4-dioxolanylphenyl)-4-(trifluoromethyl)-N-[1-[3-(trifluoromethoxy)phenyl]ethyl]-5-thiazolecarboxamide]: the Min. conc. response came to 0.3 µM and the EC50 was 1 to 20 µM.
The corresponding values for `CC(NC(=O)c1sc(-c2ccccc2F)nc1C(F)(F)F)c1cccc(N(C)C)c1` (stereo not shown) [Example 26, 2-(2-fluorophenyl)-4-(trifluoromethyl)-N-[1-[3-(dimethylamino)phenyl]ethyl]-5-thiazolecarboxamide] are 3 µM and 0.05 to 1 µM.
In turn, `COc1ccccc1-c1nc(C(F)(F)F)c(C(=O)NCc2cccc(F)c2)s1` [Example 27, 2-(2-methoxyphenyl)-4-(trifluoromethyl)-N-(3-fluorophenyl)methyl-5-thiazolecarboxamide] gave a Min. conc. response of 3 µM and an EC50 of 1 to 20 µM.
With `COc1cccc([C@H](C)NC(=O)c2sc(-c3cccc(N4CCOCC4)c3)nc2C(F)(F)F)c1` (stereo in doubt) [Example 99], the Min. conc. response was determined as 3 µM.
Turning to `COc1cccc(-c2nc(C(F)(F)F)c(C(=O)N[C@@H](C)c3cccc(OC(F)(F)F)c3)s2)c1` (stereo in doubt) [Example 24, 2-(3-methoxyphenyl)-4-(trifluoromethyl)-N-[1-[3-(trifluoromethoxy)phenyl]ethyl]-5-thiazolecarboxamide], the Min. conc. response was determined as 3 µM and the EC50 was 0.05 to 1 µM.
As for `O=C(NCc1cccc(OC(F)(F)F)c1)c1sc(-c2ccccc2CN2CCOCC2)nc1C(F)(F)F` [Example 109], the Min. conc. response was 3 µM.
Regarding `COc1ccc(F)cc1-c1nc(C(F)(F)F)c(C(=O)NC(C)c2cccc(N(C)C)c2)s1` (stereo not shown) [Example 42, 2-(5-fluoro-2-methoxyphenyl)-4-(trifluoromethyl)-N-[1-[3-(dimethylamino)phenyl]ethyl]-5-thiazolecarboxamide], the Min. conc. response was determined as 10 µM and the concentration for a half-maximal effect (EC50) fell in the range of 0.05 to 1 µM.
The corresponding values for `COc1ccc(-c2nc(C(F)(F)F)c(C(=O)N[C@@H](C)c3cccc(N4CCOCC4)c3)s2)c(OC)c1` [Example 31, 2-(2,4-dimethoxyphenyl)-4-(trifluoromethyl)-N-[1-[3-(4-morpholinyl)phenyl]ethyl]-5-thiazolecarboxamide] are 3 µM and 1 to 20 µM.
Compound `COc1ccc(-c2nc(C(F)(F)F)c(C(=O)NC(C)c3cccc(OC(F)(F)F)c3)s2)c(OC)c1` (stereo not shown) [Example 30, 2-(2,4-dimethoxyphenyl)-4-(trifluoromethyl)-N-[1-[3-(trifluoromethoxy)phenyl]ethyl]-5-thiazolecarboxamide] came in with a Min. conc. response of 3 µM and an EC50 of 0.05 to 1 µM.
Turning to `COc1ccccc1-c1nc(C(F)(F)F)c(C(=O)NC(C)c2cccc(N(C)C)c2)s1` (stereo not shown) [Example 25, 2-(2-methoxyphenyl)-4-(trifluoromethyl)-N-[1-[3-(dimethylamino)phenyl]ethyl]-5-thiazolecarboxamide], the Min. conc. response was 3 µM and the EC50 was in the range of 1 to 20 µM.
The matching figures for `COc1cccc(CNC(=O)c2sc(-c3cc(F)ccc3OC)nc2C(F)(F)F)c1` [Example 45, 2-(5-fluoro-2-methoxyphenyl)-4-(trifluoromethyl)-N-[(3-methoxyphenyl)methyl]-5-thiazolecarboxamide]: 3 µM and 1 to 20 µM.
The matching figures for `CC(NC(=O)c1sc(-c2ccccc2N2CCOCC2)nc1C(F)(F)F)c1cccc(OC(F)(F)F)c1` (stereo not shown) [Example 57, 2-[2-(4-morpholinyl)phenyl]-4-(trifluoromethyl)-N-[1-[3-(trifluoromethoxy)phenyl]ethyl]-5-thiazolecarboxamide]: 0.3 µM and 0.05 to 1 µM.
In the case of `CCN(Cc1ccncc1)Cc1ccccc1-c1nc(C(F)(F)F)c(C(=O)NC(C)c2cccc(CN3CCOCC3)c2)s1` (stereo not shown) [Example 116], the Min. conc. response came to 3 µM.
Consider `COc1ccc(F)cc1-c1nc(C(F)(F)F)c(C(=O)N[C@@H](C)c2cccc(N3CCOCC3)c2)s1` [Example 47, (S)-2-(5-fluoro-2-methoxyphenyl)-4-(trifluoromethyl)-N-[1-[3-(4-morpholinyl)phenyl]ethyl]-5-thiazolecarboxamide], for which the Min. conc. response came to 3 µM and the 50% effective concentration (EC50) was 1 to 20 µM.
Turning to `CCN(Cc1ccncc1)Cc1ccccc1-c1nc(C(F)(F)F)c(C(=O)N[C@@H](C)c2cccc(N3CCOCC3)c2)s1` [Example 115], the Min. conc. response is 3 µM.
The compound `CC(NC(=O)c1sc(-c2ccccc2CN(C)C)nc1C(F)(F)F)c1cccc(OC(F)(F)F)c1` (stereo not shown) [Example 74] had a Min. conc. response of 3 µM and an EC50 of 1 to 20 µM.
With `COc1cccc(-c2nc(C(F)(F)F)c(C(=O)NCc3cccc(F)c3)s2)c1` [Example 85], the Min. conc. response is 30 µM.
The same measure, in the same setting: then `C[C@H](NC(=O)c1sc(-c2ccccc2CN2CCOCC2)nc1C(F)(F)F)c1cccc(N2CCOCC2)c1` [Example 110], with 3 µM.
For the compound `CC(NC(=O)c1sc(-c2ccc(N3CCOCC3)cc2)nc1C(F)(F)F)c1cccc(OC(F)(F)F)c1` (stereo not shown) [Example 58, 2-[4-(4-morpholinyl)phenyl]-4-(trifluoromethyl)-N-[1-[3-(trifluoromethoxy)phenyl]ethyl]-5-thiazolecarboxamide], the Min. conc. response turned out to be 30 µM and the EC50 was 0.05 to 1 µM.
With `COc1cccc([C@H](C)NC(=O)c2sc(-c3ccccc3CN3CCN(C)CC3)nc2C(F)(F)F)c1` [Example 112], the Min. conc. response is 30 µM.
`CCN(Cc1ccncc1)Cc1cccnc1-c1nc(C(F)(F)F)c(C(=O)N[C@@H](C)c2cccc(-c3cccnc3)c2)s1` [Example 69, (S)-2-[3-[(4-pyridinylmethyl)ethylaminomethyl]pyridin-2-yl]-4-(trifluoromethyl)-N-[H-[3-(3-pyridinyl)phenyl]ethyl]-5-thiazolecarboxamide] came in with a Min. conc. response of 3 µM and an EC50 of 0.05 to 1 µM.
The corresponding values for `CCN(Cc1ccncc1)Cc1ccccc1-c1nc(C(F)(F)F)c(C(=O)N[C@@H](C)c2cccc(OC)c2)s1` [Example 60] are 0.3 µM and 0.05 to 1 µM.
`COc1cccc(-c2nc(C(F)(F)F)c(C(=O)NC(C)c3ccc4c(c3)CCO4)s2)c1` (stereo not shown) [Example 86] registered a Min. conc. response of 3 µM.
Turning to `CC(NC(=O)c1sc(-c2ccc(F)cc2)nc1C(F)(F)F)c1cccc(C(F)(F)F)c1` (stereo not shown) [Example 83], the Min. conc. response came to 0.3 µM.
In turn, `CCN(Cc1ccncc1)Cc1cccnc1-c1nc(C(F)(F)F)c(C(=O)NC(C)c2cccc(CN3CCOCC3)c2)s1` (stereo not shown) [Example 63] returned a Min. conc. response of 30 µM and an EC50 of 0.05 to 1 µM.
The corresponding values for `CC(NC(=O)c1sc(-c2ccccc2F)nc1C(F)(F)F)c1cccc(C(F)(F)F)c1` (stereo not shown) [Example 22, 2-(2-fluorophenyl)-4-(trifluoromethyl)-N-[1-[3-(trifluoromethyl)phenyl]ethyl]-5-thiazolecarboxamide] are 0.3 µM and less than 0.05 µM.
As to `CC(NC(=O)c1sc(-c2cccc(F)c2)nc1C(F)(F)F)c1cccc(C(F)(F)F)c1` (stereo not shown) [Example 92], the Min. conc. response is 3 µM.
The same measure, in the same setting: next, `Cc1cccnc1-c1nc(C(F)(F)F)c(C(=O)N[C@@H](C)c2cccc(N3CCOCC3)c2)s1` [Example 118]: 10 µM.

A word on the EC50: it is the concentration giving half of the maximal effect. A high value points to a less potent agent.
